± gives the expanded uncertainty stated by the source.
Legend:
[1] = xn = mol fraction of the nth substance listed; details: 101 kPa, Liquid; for viscosity: Falling or rolling sphere viscometry; for speed of sound: Sing-around technique in a fixed-path interferometer; for mass density: Vibrating tube method
[2] = molar heat capacity at constant pressure; xn = mol fraction of the nth substance listed; details: 101 kPa, Liquid, DSC

CC12CCC(CC1)C(C)(C)O2 [1,3,3-trimethyl-2-oxabicyclo[2.2.2]octane] + CCCCCCCCCC
Details	mass density, [1] [kg/m3]	molar heat capacity at constant pressure, [2] [J/K/mol]	speed of sound, [1] [m/s]	viscosity, [1] [mPa·s]
278.15 K, x1 = 0.1066	758.86 ± 0.24	299.16 ± 12	1315.5 ± 1.5	1.29 ± 0.04
278.15 K, x1 = 0.2007	775.04 ± 0.24	293.5 ± 11	1316.6 ± 1.5	1.39 ± 0.04
278.15 K, x1 = 0.2965	792.05 ± 0.24	287.99 ± 11	1318.2 ± 1.5	1.5 ± 0.04
278.15 K, x1 = 0.4063	812.26 ± 0.24	282.04 ± 11	1321.2 ± 1.5	1.66 ± 0.04
278.15 K, x1 = 0.5005	830.26 ± 0.24	277.25 ± 11	1324.7 ± 1.5	1.82 ± 0.04
278.15 K, x1 = 0.5959	849.15 ± 0.24	272.59 ± 11	1329 ± 1.5	2.05 ± 0.04
278.15 K, x1 = 0.7007	870.67 ± 0.24	267.96 ± 10	1335 ± 1.5	2.39 ± 0.05
278.15 K, x1 = 0.7989	891.66 ± 0.23	263.81 ± 10	1341.8 ± 1.5	2.86 ± 0.05
278.15 K, x1 = 0.8956	913.12 ± 0.23	259.87 ± 10	1349.5 ± 1.6	3.41 ± 0.05
278.15 K, x1 = 1	937.25 ± 0.23	256.14 ± 9.9	1359.6 ± 1.6	4.21 ± 0.05
298.15 K, x1 = 0.1066	743.66 ± 0.24	308.32 ± 12	1235.6 ± 1.5	0.93 ± 0.04
298.15 K, x1 = 0.2007	759.71 ± 0.24	303.12 ± 12	1237 ± 1.5	1 ± 0.04
298.15 K, x1 = 0.2965	776.57 ± 0.24	298.17 ± 12	1239.1 ± 1.5	1.07 ± 0.04
298.15 K, x1 = 0.4063	796.58 ± 0.24	292.62 ± 11	1242.3 ± 1.5	1.16 ± 0.04
298.15 K, x1 = 0.5005	814.39 ± 0.24	288.12 ± 11	1245.7 ± 1.5	1.26 ± 0.04
298.15 K, x1 = 0.5959	833.07 ± 0.24	283.78 ± 11	1250 ± 1.5	1.41 ± 0.04
298.15 K, x1 = 0.7007	854.34 ± 0.24	279.2 ± 11	1255.6 ± 1.5	1.61 ± 0.04
298.15 K, x1 = 0.7989	875.07 ± 0.24	275.24 ± 11	1261.9 ± 1.5	1.86 ± 0.04
298.15 K, x1 = 0.8956	896.24 ± 0.23	271.44 ± 11	1269.3 ± 1.5	2.16 ± 0.04
298.15 K, x1 = 1	920.04 ± 0.23	267.69 ± 10	1278.4 ± 1.5	2.6 ± 0.05
318.15 K, x1 = 0.1066	728.29 ± 0.24	318.26 ± 12	1157.5 ± 1.5	0.71 ± 0.04
318.15 K, x1 = 0.2007	744.21 ± 0.24	313.35 ± 12	1159.5 ± 1.5	0.75 ± 0.04
318.15 K, x1 = 0.2965	760.92 ± 0.24	308.63 ± 12	1162 ± 1.5	0.81 ± 0.04
318.15 K, x1 = 0.4063	780.75 ± 0.24	303.32 ± 12	1165.5 ± 1.5	0.87 ± 0.04
318.15 K, x1 = 0.5005	798.4 ± 0.24	298.96 ± 12	1169.1 ± 1.5	0.93 ± 0.04
318.15 K, x1 = 0.5959	816.88 ± 0.24	294.7 ± 11	1173.4 ± 1.5	1.02 ± 0.04
318.15 K, x1 = 0.7007	837.92 ± 0.24	290.19 ± 11	1179 ± 1.5	1.14 ± 0.04
318.15 K, x1 = 0.7989	858.42 ± 0.24	286.17 ± 11	1184.9 ± 1.5	1.29 ± 0.04
318.15 K, x1 = 0.8956	879.33 ± 0.24	282.47 ± 11	1192.3 ± 1.5	1.48 ± 0.04
318.15 K, x1 = 1	902.84 ± 0.23	278.65 ± 11	1201 ± 1.5	1.73 ± 0.04
338.15 K, x1 = 0.1066	712.7 ± 0.25	328.92 ± 13	1081.8 ± 1.5	0.58 ± 0.04
338.15 K, x1 = 0.2007	728.49 ± 0.24	324.19 ± 13	1083.9 ± 1.5	0.6 ± 0.04
338.15 K, x1 = 0.2965	745.06 ± 0.24	319.65 ± 12	1087.1 ± 1.5	0.64 ± 0.04
338.15 K, x1 = 0.4063	764.73 ± 0.24	314.6 ± 12	1091.2 ± 1.5	0.69 ± 0.04
338.15 K, x1 = 0.5005	782.2 ± 0.24	310.38 ± 12	1094.9 ± 1.5	0.73 ± 0.04
338.15 K, x1 = 0.5959	800.51 ± 0.24	306.21 ± 12	1099.3 ± 1.5	0.79 ± 0.04
338.15 K, x1 = 0.7007	821.36 ± 0.24	301.78 ± 12	1105.3 ± 1.5	0.88 ± 0.04
338.15 K, x1 = 0.7989	841.62 ± 0.24	297.82 ± 12	1111.3 ± 1.5	0.98 ± 0.04
338.15 K, x1 = 0.8956	862.32 ± 0.24	294.23 ± 11	1118.5 ± 1.5	1.1 ± 0.04
338.15 K, x1 = 1	885.57 ± 0.23	290.33 ± 11	1126.7 ± 1.5	1.27 ± 0.04

— the NIST ThermoML archive (doi:10.1016/j.fluid.2016.08.035)
